The subject of test [1] is T1, PDE4 partially purified from human U-937 myeloid leukemia cells.
T1 construct: PDE4 partially purified from human U-937 myeloid leukemia cells was used
Kind of test: PDE4 Assay (enzyme from U-937 cells, [3H]cAMP). Type of test: biochemical. The following applies: PDE4 from U-937 cells, Tris buffer pH 7.5, 20 minutes at 25° C.

Test [2] deals with BALB/c male mice. Nature of the test: Oxazolone Induced Mouse Ear Edema Model. Type of test: in vivo. The conditions noted are these: for inhibition in vivo at 1 mg: 1 mg/ear × 2 topical; for inhibition in vivo at 0.2 mg: 0.2 mg/ear × 2 topical; for inhibition in vivo at 3 mg: 3 mg/ear × 2 topical. The method, then: 2. In Vivo Anti-Inflammation Activity in Oxazolone Induced Mouse Ear Edema Model
Groups of 5 BALB/c male mice weighing 23±2 g were used. The preshaved abdomens of test animals were sensitized by application of 100 μl, of 1.5% oxazolone solution dissolved in acetone. Seven days after the initial sensitization, test substances, as well as vehicle (acetone:ethanol/1:1, 20 μL/ear) were each administered topically to the anterior and posterior surfaces of the right ear 30 minutes before, and 15 minutes after, challenge by a second application of oxazolone (1% in acetone, […]) via topical route. As a positive control, indomethacin (0.3 mg/ear×2) was administered topically using the same treatment regime as for the test compounds. Twenty-four hours after the second application of oxazolone, the ear thickness of each mouse was measured with a Dyer model micrometer gauge. A 30 percent or more inhibition in ear swelling relative to the vehicle control was considered significant and indicated possible anti-inflammatory activity.

Test [3] relates to IL-10. Nature of the test: Cytokine assay, IL-10 release from PBMC. The conditions noted are these: human PBMC, 20 ug/mL PHA; for IC50: supernatant at 48 hours. Format: cell-based. In outline: (§1)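 Human PBMC (frozen, thawed), RPMI 1640 + 10% FBS; compound at 10, 1, 0.1, 0.01 μM from 10 mM DMSO stock, n=3; cytokine release read.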
Test [4] has as its system IL-2. Nature of the test: Cytokine assay, IL-2 release from PBMC. Format: cell-based. The following applies: human PBMC, 20 ug/mL PHA; for IC50: supernatant at 24 hours. In outline:
as §1

Test [5] deals with IL-5. Nature of the test: Cytokine assay, IL-5 release from PBMC. Format: cell-based. The conditions noted are these: human PBMC, 20 ug/mL PHA; for IC50: supernatant at 48 hours. In outline: as §1
Test [6] concerns IFN-γ. Nature of the test: Cytokine assay, IFN-γ release from PBMC. Format: cell-based. The conditions noted are these: human PBMC, 20 ug/mL PHA, supernatant at 24 hours. In outline: as §1
Test [7] relates to TNF-α. Kind of test: Cytokine assay, TNF-α release from PBMC. Type of test: cell-based. The conditions noted are these: 1 μg/mL LPS; for IC50: Homo sapiens, PBMC, 24 h, supernatant at 24 hours. In outline:
as §1

Test [8] has as its system CD-1 (Crl.) derived male mice. Nature of the test: Phorbol Ester Induced Mouse Ear Edema Model. Format: in vivo. The conditions noted are these: topical, 6 h; for inhibition in vivo at 1 mg: 1 mg/ear × 2 topical; for inhibition in vivo at 0.2 mg: 0.2 mg/ear × 2 topical. The method, then: 1. In Vivo Anti-Inflammation Activity in Phorbol Ester Induced Mouse Ear Edema Model
[…] Dexamethasone (1 mg/ear×2) used as the positive control was administered topically to test animals using the same application schedule. Ear swelling was then measured by a Dyer model micrometer gauge at 6 hours after PMA application as an index of inflammation. Percent inhibition was calculated according to the formula: [(Ic−It)/Ic]×100%, where Ic and It refer to increase of ear thickness (mm) in control and treated mice, respectively.

Setting [9] is: Acetone:Ethanol/1:1, ear thickness 24 hours after second oxazolone application.
[10] abbreviates: Acetone:Ethanol/1:1, ear swelling 6 hours after PMA.
The mark [11] stands for this setting: 95% Ethanol, ear thickness 24 hours after second oxazolone application.
[12] abbreviates: 95% Ethanol, ear swelling 6 hours after PMA.

We go through 14 compounds from US9012431B2, “Boron-containing small molecules as anti-inflammatory agents” (Anacor Pharmaceuticals, Inc., priority 2008, dated 2015).

With `N#Cc1ccc(Oc2ccc3c(c2)COB3O)c(Cl)c1` [D4, 5-(2-Chloro-4-cyanophenoxy)-1,3-dihydro-1-hydroxy-2,1-benzoxaborole], the IC50 in test [1] was less than 1000 nM; in test [3], more than 10000 nM; in test [4] it was less than 1000 nM; in test [5], less than 1000 nM; in test [6], less than 1000 nM; in test [7] it was less than 1000 nM. In addition, in test [2] (0.02 mg/ear × 2 topical, Acetone:Ethanol/1:1, ear thickness 24 hours after second oxazolone application), the inhibition in vivo at 0.02 mg is less than 20%. Further, the inhibition in vivo at 1 mg in test [2] (setting [9]) is 30 to 40%.

As to `N#Cc1ccc(Oc2ccc3c(c2)COB3O)cc1C(F)(F)F` [D5, 5-(4-Cyano-3-trifluoromethylphenoxy)-1,3-dihydro-1-hydroxy-2,1-benzoxaborole], the IC50 in test [1] was less than 1000 nM; in test [3], more than 10000 nM; in test [4], 1000 to 4000 nM; in test [5], less than 1000 nM; in test [6], less than 1000 nM; in test [7], less than 1000 nM. Moreover, the inhibition in vivo at 1 mg in test [2] (setting [9]) lay within 30 to 40%; in test [8] (setting [10]) it was 30 to 60%.

`COC(=O)c1cc(Oc2ccc3c(c2)COB3O)ccc1C#N` [D6, 5-(4-Cyano-3-methoxycarbonylphenoxy)-1,3-dihydro-1-hydroxy-2,1-benzoxaborole]: the IC50 in test [1] is less than 1000 nM; in test [3] it was 4000 to 10000 nM; in test [4], less than 1000 nM; in test [5] it was 4000 to 10000 nM; in test [6], less than 1000 nM; in test [7] it was less than 1000 nM. In addition, the inhibition in vivo at 0.2 mg is less than 20% in test [2] (setting [9]) and less than 30% in test [8] (setting [10]). Moreover, the results for the inhibition in vivo at 1 mg in test [2] (setting [9]) and in test [8] (setting [10]) were less than 20% and 30 to 60%, respectively.

Regarding `COC(=O)c1cc(Oc2ccc3c(c2)COB3O)ccc1C(N)=O` [D7, 5-(4-Carbamoyl-3-methoxycarbonylphenoxy)-1,3-dihydro-1-hydroxy-2,1-benzoxaborole], the IC50 in test [1], in test [3], in test [4], in test [5], in test [6] and in test [7] was less than 1000 nM in each case. The inhibition in vivo at 1 mg/kg in test [2] (1 mg/kg × 2 topical, Acetone:Ethanol/1:1, ear thickness 24 hours after second oxazolone application) was less than 20%; in test [8] (1 mg/kg × 2 topical, Acetone:Ethanol/1:1, ear swelling 6 hours after PMA), less than 30%.

In the case of `COc1cc(C#N)ccc1Oc1ccc2c(c1)COB2O` [D15, 5-(4-Cyano-2-methoxyphenoxy)-1,3-dihydro-1-hydroxy-2,1-benzoxaborole], the IC50 in test [1], in test [4], in test [6] and in test [7] was less than 1000 nM throughout. In addition, the inhibition in vivo at 1 mg lay in the range of 40 to 60% in test [2] (setting [9]) and 30 to 60% in test [8] (setting [10]).

Turning to `CCOC(=O)COc1cc(C#N)ccc1Oc1ccc2c(c1)COB2O` [D16, 5-[4-Cyano-2-(ethoxycarbonylmethoxy)phenoxy]-1,3-dihydro-1-hydroxy-2,1-benzoxaborole], the IC50 in test [1] is less than 1000 nM; in test [4], 1000 to 4000 nM; in test [6], less than 1000 nM; in test [7] it was less than 1000 nM. Further, the inhibition in vivo at 3 mg in test [2] (setting [11]) is less than 20%. Besides, the inhibition in vivo at 0.2 mg in test [8] (setting [10]) lay within 60 to 90%. The same compound came in with an inhibition in vivo at 1 mg in test [8] (setting [10]) of 90 to 100%.

Turning to `CCOC(=O)c1ccc(Oc2ccc3c(c2)COB3O)nc1OCC` [D27, Ethyl 2-ethoxy-6-(1-hydroxy-1,3-dihydrobenzo[c][1,2]oxaborol-5-yloxy)nicotinate], the IC50 in test [1], in test [4], in test [6] and in test [7] was less than 1000 nM in each case. Besides, the inhibition in vivo at 3 mg in test [2] (setting [11]) lay in the range of 20 to 30%.

As for `CCOC(=O)c1cnc(Oc2ccc3c(c2)COB3O)c(Cl)c1` [D48, Ethyl 5-chloro-6-(1-hydroxy-1,3-dihydrobenzo[c][1,2]oxaborol-5-yloxy)nicotinate], the IC50 in test [1], in test [4], in test [6] and in test [7] was less than 1000 nM in each case. In addition, the values for the inhibition in vivo at 0.2 mg in test [2] (setting [9]) and in test [8] (setting [10]) were less than 20% and less than 30%, respectively. The inhibition in vivo at 1 mg is 20 to 30% in test [2] (setting [9]) and less than 30% in test [8] (setting [10]).

On to `O=C(O)c1ccc(Oc2ccc3c(c2)COB3O)nc1` [D61, 6-(1-Hydroxy-1,3-dihydrobenzo[c][1,2]oxaborol-5-yloxy)nicotinic acid], for which the inhibition in vivo at 0.1 mg is less than 20% in test [2] (0.1 mg/ear × 2 topical, Acetone:Ethanol/1:1, ear thickness 24 hours after second oxazolone application) and less than 30% in test [8] (0.1 mg/ear × 2 topical, Acetone:Ethanol/1:1, ear swelling 6 hours after PMA). The inhibition in vivo at 0.2 mg in test [2] (setting [9]) is less than 20%; in test [8] (setting [10]) it was less than 30%. The inhibition in vivo at 1 mg was less than 20% in test [2] (setting [9]) and 30 to 60% in test [8] (setting [10]). The inhibition at 10 µM was less than 30% in test [3] (48 hours, 10 μM); less than 30% in test [4] (24 hours, 10 μM); 30 to 60% in test [5] (48 hours, 10 μM); less than 30% in test [7] (human PBMC, 24 hours, 10 μM).

In the case of `COCCN(C)c1nc(Oc2ccc3c(c2)COB3O)ccc1C#N` [D96, 6-(1-hydroxy-1,3-dihydro-benzo[c][1,2]oxaborol-5-yloxy)-2-[(2-methoxy-ethyl)-methyl-amino]-nicotinonitrile], the IC50 in test [1] was less than 1000 nM; in test [3] it was 1000 to 4000 nM; in test [4], less than 1000 nM; in test [5] it was 1000 to 4000 nM; in test [6] it was less than 1000 nM; in test [7], less than 1000 nM. Moreover, the inhibition in vivo at 1 mg in test [2] (setting [9]) was less than 20%.

Consider `CNc1nc(Oc2ccc3c(c2)COB3O)ccc1C#N` [D110, 6-(1-Hydroxy-1,3-dihydro-benzo[c][1,2]oxaborol-5-yloxy)-2-methylamino-nicotinonitrile], for which the IC50 was less than 1000 nM in test [1]; more than 10000 nM in test [3]; less than 1000 nM in test [4]; less than 1000 nM in test [5]; less than 1000 nM in test [6]; less than 1000 nM in test [7]. In addition, the inhibition in vivo at 0.02 mg in test [8] (0.02 mg/ear × 2 topical, 95% Ethanol, ear swelling 6 hours after PMA) is less than 30%. Moreover, the inhibition in vivo at 0.06 mg in test [8] (0.06 mg/ear × 2 topical, 95% Ethanol, ear swelling 6 hours after PMA) was less than 30%. The compound also registered an inhibition in vivo at 0.2 mg in test [8] (setting [12]) of less than 30%.

In the case of `COCCNc1nc(Oc2ccc3c(c2)COB3O)ccc1C#N` [D111, 6-(1-Hydroxy-1,3-dihydro-benzo[c][1,2]oxaborol-5-yloxy)-2-(2-methoxy-ethylamino)-nicotinonitrile], the inhibition in vivo at 0.15 mg in test [2] (0.15 mg/ear × 2 topical, 95% Ethanol, ear thickness 24 hours after second oxazolone application) is less than 20%; in test [8] (0.15 mg/ear × 2 topical, 95% Ethanol, ear swelling 6 hours after PMA) it was less than 30%. In test [8] (0.015 mg/ear × 2 topical, 95% Ethanol, ear swelling 6 hours after PMA), this compound showed an inhibition in vivo at 0.015 mg of less than 30%. Also, the inhibition in vivo at 0.05 mg in test [8] (0.05 mg/ear × 2 topical, 95% Ethanol, ear swelling 6 hours after PMA) is less than 30%. In test [8] (setting [12]), this compound displayed an inhibition in vivo at 1 mg of less than 30%. The compound also returned an IC50 in test [7] of less than 1000 nM.

For the compound `COc1nc(Oc2cc3c(cc2F)B(O)OC3)ccc1C#N` [D122, 6-(6-Fluoro-1-hydroxy-1,3-dihydrobenzo[c][1,2]oxaborol-5-yloxy)-2-methoxynicotinonitrile], the IC50 in test [1], in test [3], in test [4], in test [5], in test [6] and in test [7] was less than 1000 nM throughout. In addition, in test [2] (setting [9]), the inhibition in vivo at 1 mg is less than 20%.

Compound `COc1ccc2c(c1)c(CC(=O)O)c(C)n2C(=O)c1ccc(Cl)cc1` [Indomethacin, indomethacin, reference compound] had an inhibition in vivo at 0.3 mg in test [2] (0.3 mg/ear × 2 topical, 95% Ethanol, ear thickness 24 hours after second oxazolone application) of 40 to 60%.

What is called IC50 is the concentration that gives 50% inhibition. A lower IC50 goes with higher potency. What is called inhibition in vivo is the relative decrease from the control value, in per cent. Lower therefore signals little suppression. One may read the inhibition as the drop in the measured response relative to a control, in per cent. A lower inhibition goes with a weak effect.
